Test results from patent US12440492B2, “Pharmaceutical compositions comprising AKT protein kinase inhibitors” (Genentech, Inc., priority 2016, dated 2025).
“And” between values parts separate entries of the source, which are not always exact repeats. Equal values may be shown once. Where a name gives a salt, the structure may show the parent alone.

Columns and labels:
Type in all cases: physicochemical
[1] = Solid state by X-ray powder diffraction; conditions: * indicates absence of crystalline API; for Solid state / Polymorphy (X-Ray, XRPD): monohydrochloride
Source text: Bragg's law describes the diffraction of crystalline material with the equation “2d·sin(theta)=n·lambda”, wherein “d” denotes perpendicular distance (in Angstroms) between pairs of adjacent planes in a crystal (“d-spacing”), “theta” denotes the Bragg angle, “lambda” denotes the wavelength and “n” is an integer. When Bragg's law is fulfilled, the reflected beams are in phase and interfere constructively so that Bragg diffraction peaks are observed in the X-ray diffraction pattern. At angles of incidence other than the Bragg angle, reflected beams are out of phase and destructive interference or cancellation occurs. […] The XRPD pattern of an amorphous material is further characterized by one or more amorphous halos.
The term “XRPD” denotes the analytical method of X-Ray Powder Diffraction. The repeatability of the angular values is in the range of 2Theta±0.2°, more particularly in the range of 2Theta±0.1°. The term “approximately” given in combination with an angular value denotes the variance which is in the range of 2Theta±0.2°, particularly in the range of 2Theta±0.1°. The relative XRPD peak intensity is dependent upon many factors such as structure factor, temperature factor, crystallinity, polarization factor, multiplicity, and Lorentz factor. Relative intensities may vary considerably from one measurement to another due to preferred orientation effects. According to USP 941 (US Pharmacopoeia, 37th Edition, General Chapter 941), relative intensities between two samples of the same material may vary considerably due to “preferred orientation” effects. Anisotropic materials adopting preferred orientation will lead to anisotropic distribution of properties such as modulus, strength, ductility, toughness, electrical conductivity, thermal expansion, etc., as described e.g. in Kocks U. F. et al. (Texture and Anisotropy: Preferred Orientations in Polycrystals and Their Effect on Materials Properties, Cambridge University Press, 2000). In XRPD but also Raman spectroscopy, preferred orientations cause a change in the intensity distribution. Preferred orientation effects are particularly pronounced with crystalline APIs of relatively large particle size.

[2] = Bulk density, tapped density and Carr index; conditions: for Bulk density / Tapped density: monohydrochloride
[3] = Particle size distribution (d10, d50, d90) by laser diffraction
Source text: FIG. 6 illustrates particle size distribution of the material of Example 6C (Batch HQ00003) spray dried with two-feed nozzle as obtained by laser diffraction A bimodal particle size distribution is obvious. FIG. 9 illustrates particle size distribution of spray dried material with rotary wheel nozzle, i.e. of the material of batch BS1506SA03 of Example 13 (Table 20) obtained using a Malvern Mastersizer 2000 equipped with Hydro 2000S wet sample dispersion unit (Malvern Instruments Ltd, Malvern/UK). A monomodal particle size distribution is obvious. The terms “d50 value” (sometimes also referred to as “d(0.5)-value”) and “mass-median diameter” (or MMD) can be used interchangeably and denote the average particle size by mass, i.e. the average equivalent diameter of a particle, which is defined as the diameter where 50% (w) of the particles of the ensemble have a larger equivalent spherical diameter, and the other 50% (w) have a smaller equivalent spherical diameter. In analogy, the term “d10-value” denotes the particle diameter wherein 10% (w) of the particles of the ensemble have a smaller equivalent spherical diameter. In analogy, the term “d90-value” denotes the particle diameter wherein 90% (w) of the particles of the ensemble have a smaller equivalent spherical diameter.

[4] = Shear cell testing with Ring Shear Tester RST-XS
Source text: Similar to the classification used by Jenike (Dietmar Schulze, Pulver und Schüttgüter, 2009 Springer Verlag Berlin/DE), one can define flow behaviour based on the flow function constant (ffc) as follows:
The larger the flow function constant ffc, i.e., the smaller the ratio of the unconfined yield strength (σc) to the consolidation stress (σ1), the better a bulk solid's flow.

[5] = spray-dried amorphous ipatasertib monohydrochloride, rotary wheel atomizer
[6] = Pre-shear stress 1000 PA, 30 mL shear cell, monohydrochloride
[7] = spray dried amorphous ipatasertib monohydrochloride powder

SMILES	Polymorphy (X-Ray) [1]	Bulk density [2, 5]	Tapped density [2, 5]	Particle size d10 [3, 5]	Particle size d50 [3, 5]	Particle size d90 [3, 5]	Consolidation stress (σ1) [4, 6]	Flow Function Constant (ffc) [4, 6]	Solid state / Polymorphy (X-Ray, XRPD) [1]	Bulk density [2, 7]	Tapped density [2, 7]	Particle size d10 [3, 7]	Particle size d50 [3, 7]	Particle size d90 [3, 7]	other results
CC(C)NC[C@@H](C(=O)N1CCN(c2ncnc3c2[C@H](C)C[C@H]3O)CC1)c1ccc(Cl)cc1 [BS1506SA01, ipatasertib monohydrochloride]	amorphous*	0.41 gcm^−3	0.57 gcm^−3	11 μm	31 μm	64 μm	1725 PA	4.0	–	–	–	–	–	–	–
CC(C)NC[C@@H](C(=O)N1CCN(c2ncnc3c2[C@H](C)C[C@H]3O)CC1)c1ccc(Cl)cc1 [BS1506SA02, ipatasertib monohydrochloride]	amorphous*	0.40 gcm^−3	0.52 gcm^−3	11 μm	31 μm	64 μm	1701 PA	3.5	–	–	–	–	–	–	–
CC(C)NC[C@@H](C(=O)N1CCN(c2ncnc3c2[C@H](C)C[C@H]3O)CC1)c1ccc(Cl)cc1 [BS1506SA03, ipatasertib monohydrochloride]	amorphous*	0.39 gcm^−3	0.55 gcm^−3	12 μm	31 μm	62 μm	1709 PA	2.9	–	–	–	–	–	–	particle size distribution shape ([3]; laser diffraction, monohydrochloride): monomodal
CC(C)NC[C@@H](C(=O)N1CCN(c2ncnc3c2[C@H](C)C[C@H]3O)CC1)c1ccc(Cl)cc1 [BS1506SA04, ipatasertib monohydrochloride]	amorphous*	0.40 gcm^−3	0.56 gcm^−3	11 μm	30 μm	62 μm	1707 PA	3.2	–	–	–	–	–	–	–
CC(C)NC[C@@H](C(=O)N1CCN(c2ncnc3c2[C@H](C)C[C@H]3O)CC1)c1ccc(Cl)cc1 [BS1506SA05, ipatasertib monohydrochloride]	amorphous*	0.41 gcm^−3	0.57 gcm^−3	13 μm	33 μm	65 μm	1668 PA	3.5	–	–	–	–	–	–	–
CC(C)NC[C@@H](C(=O)N1CCN(c2ncnc3c2[C@H](C)C[C@H]3O)CC1)c1ccc(Cl)cc1 [BS1506SA06, ipatasertib monohydrochloride]	amorphous*	0.41 gcm^−3	0.56 gcm^−3	12 μm	32 μm	63 μm	1683 PA	3.2	–	–	–	–	–	–	–
CC(C)NC[C@@H](C(=O)N1CCN(c2ncnc3c2[C@H](C)C[C@H]3O)CC1)c1ccc(Cl)cc1 [BS1506SA07, ipatasertib monohydrochloride]	amorphous*	0.42 gcm^−3	0.56 gcm^−3	13 μm	32 μm	65 μm	1705 PA	3.1	–	–	–	–	–	–	–
CC(C)NC[C@@H](C(=O)N1CCN(c2ncnc3c2[C@H](C)C[C@H]3O)CC1)c1ccc(Cl)cc1 [BS1506SA08, ipatasertib monohydrochloride]	amorphous*	0.43 gcm^−3	0.56 gcm^−3	13 μm	34 μm	68 μm	1686 PA	3.4	–	–	–	–	–	–	–
CC(C)NC[C@@H](C(=O)N1CCN(c2ncnc3c2[C@H](C)C[C@H]3O)CC1)c1ccc(Cl)cc1 [Composition 140910415, ipatasertib monohydrochloride]	–	–	–	–	–	–	1710 PA	3.3	amorph.*	0.42 gcm^−3	0.57 gcm^−3	11 μm	29 μm	56 μm	–
CC(C)NC[C@@H](C(=O)N1CCN(c2ncnc3c2[C@H](C)C[C@H]3O)CC1)c1ccc(Cl)cc1 [Composition 141210421, ipatasertib monohydrochloride]	–	–	–	–	–	–	–	–	amorph.*	0.38 gcm^−3	0.55 gcm^−3	10 μm	28 μm	56 μm	–
CC(C)NC[C@@H](C(=O)N1CCN(c2ncnc3c2[C@H](C)C[C@H]3O)CC1)c1ccc(Cl)cc1 [Composition 141210422, ipatasertib monohydrochloride]	–	–	–	–	–	–	–	–	amorph.*	0.37 gcm^−3	0.54 gcm^−3	9.6 μm	27 μm	54 μm	–
CC(C)NC[C@@H](C(=O)N1CCN(c2ncnc3c2[C@H](C)C[C@H]3O)CC1)c1ccc(Cl)cc1 [Composition 141210423, ipatasertib monohydrochloride]	–	–	–	–	–	–	–	–	amorph.*	0.39 gcm^−3	0.55 gcm^−3	10 μm	28 μm	56 μm	–
CC(C)NC[C@@H](C(=O)N1CCN(c2ncnc3c2[C@H](C)C[C@H]3O)CC1)c1ccc(Cl)cc1 [Composition 141210424, ipatasertib monohydrochloride]	–	–	–	–	–	–	–	–	amorph.*	0.37 gcm^−3	0.54 gcm^−3	9.5 μm	27 μm	54 μm	–
CC(C)NC[C@@H](C(=O)N1CCN(c2ncnc3c2[C@H](C)C[C@H]3O)CC1)c1ccc(Cl)cc1 [Composition 141210425, ipatasertib monohydrochloride]	–	–	–	–	–	–	–	–	amorph.*	0.39 gcm^−3	0.54 gcm^−3	11 μm	39 μm	80 μm	–
CC(C)NC[C@@H](C(=O)N1CCN(c2ncnc3c2[C@H](C)C[C@H]3O)CC1)c1ccc(Cl)cc1 [Composition 141210426, ipatasertib monohydrochloride]	–	–	–	–	–	–	–	–	amorph.*	0.24 gcm^−3	0.37 gcm^−3	8.5 μm	21 μm	43 μm	–
CC(C)NC[C@@H](C(=O)N1CCN(c2ncnc3c2[C@H](C)C[C@H]3O)CC1)c1ccc(Cl)cc1 [Example 6C′, ipatasertib monohydrochloride]	–	–	–	–	–	–	–	–	–	0.262 gcm^−3 and 0.26 gcm^−3	0.423 gcm^−3 and 0.42 gcm^−3	0.8 μm	3.0 μm	5.7 μm	Carr Index [2, 7]: 38%; Consolidation stress (σ1) ([4]; Pre-shear stress 1000 PA): 2118 PA; Flow Function Constant (ffc) ([4]; Pre-shear stress 1000 PA): 1.08; tc ([4]; Pre-shear stress 1000 PA): 514 Pa; Consolidation stress (σ1) ([4]; Pre-shear stress 2000 PA): 4844 PA; Flow Function Constant (ffc) ([4]; Pre-shear stress 2000 PA): 1.09; tc ([4]; Pre-shear stress 2000 PA): 1095 Pa; Consolidation stress (σ1) ([4]; Pre-shear stress 4000 PA): 9557 PA; Flow Function Constant (ffc) ([4]; Pre-shear stress 4000 PA): 1.12; tc ([4]; Pre-shear stress 4000 PA): 2041 Pa; ffc ([4]; across all pre-shear stresses): around 1.1; flowability ([4]; shear cell testing): very poor flowability
